Measured values taken from patent publication US20240189387A1, “DOSING REGIMENS FOR HEMATOPOIETIC STEM CELL MOBILIZATION FOR STEM CELL TRANSPLANTS IN MULTIPLE MYELOMA PATIENTS” (Ensoma, Inc., priority 2021, published 2024).
Where two headings read alike, the source gives them in different places.

How the values were obtained:
[1] = tested on: CD34+ cells; experiment: Phase 1 trial: mobilization of CD34+ cells into peripheral blood (multicolor flow cytometry); details: for % ≥20/μL peak CD34+ / Peak CD34+ (#/μL) Median (range): Day 1
[2] = Phase 1 trial: treatment emergent adverse events; details: Part B, combination n = 38; plerixafor n = 14
Description: FIG. 1A depicts the treatments provided to patient cohorts enrolled in Part A and Part B of a Phase 1 clinical trial as well as measurable endpoints.
Patients were monitored for emergent adverse events.

[3] = tested on: graft cell subsets (T cells, B cells, NK cells); details: cited from earlier work
[4] = tested on: CD34+CD90+CD45RA− cells; experiment: Phase 1 trial: mobilization of CD34+CD90+CD45RA− cells into peripheral blood (flow cytometry); details: plerixafor alone
[5] = tested on: CD34+ cells; details: historical plerixafor alone data, Devine et al., Blood 2008; cited from earlier work
[6] = Part B, plerixafor (pooled placebo + plerixafor), listed as plerixafor
[7] = Part C, 8 patients on combination (0.03 or […]), plerixafor alone
[8] = Part C, plerixafor (pooled placebo + plerixafor), listed as plerixafor
[9] = Chen et al., 2019, 2 LP plerixafor, 1 LP G-CSF
[10] = Devine et al, 2008, yield of 1 LP

Compound: c1cc(CN2CCCNCCNCCCNCC2)ccc1CN1CCCNCCNCCCNCC1 [Plerixafor, 1,1′-[1,4-phenylenebis(methylene)]-bis-1,4,8,11-tetra-azacyclotetradecane]
- % ≥40/μL peak CD34+ ([1]; Part B, plerixafor): 21%
- % ≥20/μL peak CD34+ ([1]; Part B, plerixafor (pooled placebo + plerixafor)): 64%
- % ≥20/μL peak CD34+ [1, 6]: 64%
- Peak CD34+ (#/μL) Median (range) [1, 6]: 26 #/μL
- patients achieving peak CD34+ count of at least 20 cells per microliter [1, 7]: none
- patients achieving peak CD34+ count of at least 40 cells per microliter [1, 7]: none
- % ≥20/μL peak CD34+ ([1]; Part C, plerixafor (pooled placebo + plerixafor)): 0%
- % ≥20/μL peak CD34+ [1, 8]: 0%
- Peak CD34+ (#/μL) Median (range) [1, 8]: 18 #/μL
- % ≥40/μL peak CD34+ ([1]; Part C, plerixafor, first day): 0%
- Peak CD34+ (#/μL) Median ([1]; Part C, pooled placebo + plerixafor, Day 2): 17 #/μL
- % ≥40/μL peak CD34+ ([1]; Pooled B + C, plerixafor): 14%
- % ≥20/μL peak CD34+ ([1]; Pooled B + C, plerixafor): 50%
- % ≥20/μL peak CD34+ ([1]; Pooled B + C, plerixafor, listed as plerixafor): 56%
- patients with peak CD34+ ≥20 cells/μL (%) ([1]; plerixafor alone): 50% (7/14)
- patients with peak CD34+ ≥40 cells/μL (%) ([1]; plerixafor alone): 14% (2/14)
- Abdominal discomfort/pain [2]: 4 (28.6) n (%)
- Back pain/Musculoskeletal pain [2]: 2 (14.3) n (%)
- Diarrhea [2]: 5 (35.7) n (%)
- Dizziness [2]: 1 (7.1) n (%)
- Dysgeusia [2]: 2 (14.3) n (%)
- Headache [2]: 1 (7.1) n (%)
- Nausea [2]: 2 (14.3) n (%)
- Vomiting [2]: 1 (7.1) n (%)
- graft CD34+ Median (range) ([3]; Chen et al., 2019, 2 LP for plerixafor (N = 50+), 1 LP for G-CSF (N = 112+)): 4.7 (0.9-9.6) ×10^6/kg
- graft CD3+ Median (range) [3, 9]: 6.0 (2.7-13.0) ×10^8/kg
- graft CD4+ Median (range) [3, 9]: 3.6 (2.0-9.4) ×10^8/kg
- graft CD8+ Median (range) [3, 9]: 2.2 (0.5-5.0) ×10^8/kg
- graft CD19+ Median (range) [3, 9]: 1.5 (0.2-7.4) ×10^8/kg
- graft CD56+ Median (range) [3, 9]: 0.4 (0.0-1.1) ×10^8/kg
- graft CD3+ Median (range) [3, 10]: 4.6 (1.5-7.8) ×10^8/kg
- graft CD4+ Median (range) [3, 10]: 3.2 (1-5.7) ×10^8/kg
- graft CD8+ Median (range) [3, 10]: 1.3 (0.4-3.4) ×10^8/kg
- graft CD19+ Median (range) [3, 10]: 1.0 (0.2-2.4) ×10^8/kg
- graft CD56+ Median (range) [3, 10]: 0.3 (0.1-1.0) ×10^8/kg
- graft CD34+ Median (range) ([3]; Devine et al, 2008, yield of 1 LP, plerixafor N = 24, G-CSF N = 8): 2.9 (1.2-6.3) ×10^6/kg
- median peak CD34+CD90+CD45RA− cells [4]: 8 cells/μL
- patients with peak CD34+ ≥20 cells/μL (%) [5]: 28% (7/25)
- patients with peak CD34+ ≥40 cells/μL (%) [5]: 4% (1/25)
